Assay results published in PMC11462347 (Heliyon, 2024).

Tests used:
[1] = biological target: T1, tyrosinase (Agaricus bisporus, UniProt C7FF04); assay: Fluorescence quenching of tyrosinase; assay type: binding; details: for Kd: Ka; for quenching mechanism: Ksv decreasing with temperature; for ΔH / ΔS: van't Hoff equation, 298-310 K
Target sequence in this assay (C7FF04 1-392 limits assumed): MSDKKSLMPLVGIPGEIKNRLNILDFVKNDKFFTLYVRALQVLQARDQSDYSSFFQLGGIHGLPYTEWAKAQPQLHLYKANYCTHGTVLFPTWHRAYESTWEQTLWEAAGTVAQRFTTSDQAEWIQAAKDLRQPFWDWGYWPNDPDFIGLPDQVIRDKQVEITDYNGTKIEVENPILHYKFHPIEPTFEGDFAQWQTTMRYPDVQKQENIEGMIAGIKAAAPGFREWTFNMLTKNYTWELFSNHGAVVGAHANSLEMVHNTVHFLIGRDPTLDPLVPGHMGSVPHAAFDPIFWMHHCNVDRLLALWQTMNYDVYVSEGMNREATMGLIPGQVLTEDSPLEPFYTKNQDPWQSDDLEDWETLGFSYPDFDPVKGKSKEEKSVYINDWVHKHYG

[2] = biological target: T1, tyrosinase; assay: Kinetic assay for inhibition action; assay type: biochemical; details: for Inhibition type: Lineweaver-Burk plot
Target sequence in this assay (C7FF04 1-392): as the sequence (C7FF04 1-392 limits assumed) above

[3] = biological target: T1, tyrosinase; assay: biochemical
Target sequence in this assay (C7FF04 1-392): as the sequence (C7FF04 1-392 limits assumed) above

| numbers of binding sites (n) [1] | Kq ([1]; 298 K) | Kq ([1]; 304 K) | Kq ([1]; 310 K) | Kd ([1]; T 298 K) [µM] | Kd ([1]; T 304 K) [µM] | Kd ([1]; T 310 K) [µM] | quenching mechanism [1] | KSV ([1]; T 298 K) | n (number of binding sites) ([1]; T 298 K) | ΔG ([1]; T 298 K) [kcal/mol] | KSV ([1]; T 304 K) | n (number of binding sites) ([1]; T 304 K) | ΔG ([1]; T 304 K) [kcal/mol] | KSV ([1]; T 310 K) | n (number of binding sites) ([1]; T 310 K) | ΔG ([1]; T 310 K) [kcal/mol] | ΔH [1] [kcal/mol] | ΔS [1] [J mol^−1k^−1] | Inhibition type [2] | SMILES | further results |
| --- | --- | --- | --- | --- | --- | --- | --- | --- | --- | --- | --- | --- | --- | --- | --- | --- | --- | --- | --- | --- | --- |
| ~1 | 0.73 × 10^12 L mol^−1 S^−1 | 0.65 × 10^12 L mol^−1 S^−1 | 0.51 × 10^12 L mol^−1 S^−1 | 5.46 | 5.18 | 9.8 | static | 0.73 ± 0.01 10^4L·mol^−1 | 1.10 | -0.707 ± 0.0024 | 0.65 ± 0.02 10^4L·mol^−1 | 1.12 | -0.7 ± 0.0024 | 0.51 ± 0.01 10^4L·mol^−1 | 1.08 | -0.693 ± 0.0048 | -1.07 ± 0.502 | −5.10 ± 1.19 | Mixed | COc1cc(-c2oc3cc(O)cc(O)c3c(=O)c2O)ccc1O [Isorhamnetin] | Inhibition type ([2]; listed as isorhamnetin): mixed inhibition; Kis ([2]; binding to enzyme-substrate complex): 0.924 ± 0.02 mg/mL; IC50 [3]: 96.4 ± 9.9 µM |
| ~1 | 1.03 × 10^12 L mol^−1 S^−1 | 0.83 × 10^12 L mol^−1 S^−1 | 0.73 × 10^12 L mol^−1 S^−1 | 47.6 | 16.9 | 12.3 | static | 1.03 ± 0.04 10^4L·mol^−1 | 1.08 | -0.717 ± 0.014 | 0.83 ± 0.1 10^4L·mol^−1 | 1.22 | -0.782 ± 0.0072 | 0.73 ± 0.02 10^4L·mol^−1 | 1.27 | -0.846 ± 0.012 | 2.49 ± 0.263 | 45.03 ± 7.1 | Competitive | O=c1c(O)c(-c2ccc(O)cc2)oc2cc(O)cc(O)c12 [Kaempferol] | IC50 [3]: 82.1 ± 13.7 µM |
| ~2 | 1.44 × 10^12 L mol^−1 S^−1 | 1.17 × 10^12 L mol^−1 S^−1 | 1.13 × 10^12 L mol^−1 S^−1 |  |  |  | static | 1.44 ± 0.21 10^4L·mol^−1 | 1.44 | -0.923 ± 0.012 | 1.17 ± 0.11 10^4L·mol^−1 | 1.46 | -0.985 ± 0.0048 | 1.13 ± 0.15 10^4L·mol^−1 | 1.61 | -1.05 ± 0.0048 | 2.18 ± 0.311 | 43.56 ± 3.21 | Competitive | O=c1c(O)c(-c2ccc(O)c(O)c2)oc2cc(O)cc(O)c12 [Quercetin] |  |
